Assay results taken from patent US20120034210A1, “COMPOSITIONS FOR POTENTIATING APOPOSIS SIGNALS IN TUMOUR CELLS” (INSTITUT BERGONIE, priority 2008, published 2012).
“Also recorded” adds a separate entry of the source.

Columns and labels:
[1] = tested on: DISC macro-complex (Fas/FADD/Caspase-8); test: DISC formation: Fas immunoprecipitation and Western blot; format: cell-based, human; details: H9, Jurkat, activated PBTs; non-cytotoxic concentrations; vs untreated cells
Experimental: Cells were incubated with 1 μg/ml APO1-3 for 30 minutes at 4° C. After washing, cells were incubated for 15 minutes at 4° C. (0 minutes) or at 37° C. (15 minutes) and then lysed for 30 minutes at 4° C. in a lysis buffer (25 mM HEPES pH 7.4, 1% Triton X-100, 150 mM NaCl, 2 mM EDTA, a cocktail including protease inhibitors (Sigma)). The lysed cells were then centrifugated for 15 minutes at 15000 rpm in order to eliminate genomic DNA, and the supernatant was kept. The sepharose beads which were coupled with protein A were added to the lysate and the mixture was incubated for 2 hours. The beads were recovered, washed intensively and the immunoprecipitated proteins were re-suspended in a denaturing and reducing buffer (0.01M Tris-HCl pH6.8, 10% glycerol (v/v), 85 mM sodium dodecyl sulfate (SDS), 5% (v/v) […] and 0.005% (w/v) bromophenol blue) then heated at 100° C. for 5 minutes. The samples were deposited in an acrylamide/Bisacrylamide gel and separated by electrophoresis. The proteins were transferred from the gel into a nitrocellulose membrane using a semi-dry medium transfer technique for 2 hours at constant amperage (0.8 mA/cm^2). […] After transfer, the nitrocellulose membrane was saturated with proteins for 30 minutes with a TBST buffer (50 mM Tris pH=8, 0.15M sodium chloride, 0.05% (v/v) Tween-20) containing 5% (w/v) skimmed powdered milk (TBSTM). After washing with TBST, the membrane was incubated for 2 hours with the primary antibody in TBST. The membrane was washed intensively then incubated for one hour with TBST containing the secondary peroxidase-coupled antibody. […] This solution contained a substrate metabolised by peroxidase to yield a luminescent compound, which allowed marking a radiographic film (Amersham).

[2] = tested on: T and B leukemia/lymphoma cell lines and activated PBLs treated with FasL; test: Fas/CD95-mediated cell death (MTT test); format: cell-based, human
Experimental: 2 to 4.10^4 cells were deposited in wells in a 96-well plate. The cells were incubated, in the presence of the different reactants for the times specified, at 37° C. in a final volume of 100 or 200 μl.
The MTT test enabled to measure the activity of a mitochondrial enzyme, the dehydrogenase succinate which transforms MTT (or 3-(4,5-dimethylthiazol-2-yl)-2,5-diphenyltetrazolium) bromide originally yellow in colour and soluble, into blue formazan crystals, insoluble in aqueous phase. Upon completion of the different treatments, the living cells were quantified by adding in each well 15 μl PBS (Phosphate Buffered Saline) containing 5 mg/ml MTT. […] Spectrophotometric reading of absorbance was done at 570 nm. The measurement of the optical density is directly proportional to the number of living cells and the percentage of cell death was calculated with the following formula: 100-[(DO treated cells/DO non-treated cells)*100].

[3] = tested on: intracellular calcium concentration; test: Intracellular Ca2+ concentration, indo-1 (micro)spectrofluorimetry; format: cell-based, human
Experimental: Principle: [Ca^2+]i was measured by microspectrofluorimetry using a calcium sensitive fluorescent probe: indo-1. When excited at 360 nm wavelength, the so-called monoexcitation/double emission indo-1 probe transmitted back in a spectrum ranging from 400 to 500 nm. Binding of Ca^2+ to indo-1 caused displacement of the emission spectrum after excitation. The emission maximum in the unbound form was located around 480 nm. The emission of the complexed form was around 405 nm. An increase of calcium concentration thus caused the emission to increase to 405 nm and the emission to decrease to 480 nm. The ratio of both fluorescence intensities allowed to be independent from the quantity of the probe and to determine the [Ca^2+]i according to the Grynkiewicz equation:
[Ca^2+]i(nM)=Kd.β×(R−Rmin)/(Rmax−R)
Rmax, Rmin and Kd. β were determined by combining electrophysiology (patch clamp) and spectrofluorimetry. Rmax was determined by placing in the patch pipette a medium containing 10 mM CaCl2. Rmin was obtained by placing as an intrapipette solution a calcium-deprived medium (10 mM EGTA).
The cells were then rinsed with HBSS (800 rpm centrifugation for 2 minutes) and placed in an observation chamber on a glass coverslip. […] The excitation light is supplied by a Xenon lamp (100W). […] The substances to be tested were applied using a glass pipette positioned at some twenty μm of the studied cell and connected to a pneumatic system.
The principle as well as the loading of the cells were identical with the measurement on single cells. In such a case, approx. 40,000 cells were placed in a quartz tub under constant agitation. The tub was then placed in a Hitachi spectrofluorimeter whereof the excitation monochromator was set to 350 nm. […] The signals were transmitted to a computer via an analogue/digital converter. So as to be able to apply the Grynkiewicz equation (see above) and translate the fluorescence ratios measured in calcium values, the calibration parameters were entered into the software. The substances to be tested were applied directly in the tube under constant agitation.

CD95 [4] = test: CD95 capping (CD95-CAP), fluorescence confocal microscopy; format: cell-based, human; details: leukemic cell lines; culture up to 24 hours
Experimental: The cells were left to adhere on a slide pre-treated with poly-L-lysin (ESCO, VWR) for 5 minutes then incubated with the different reactants. The cells activated with the anti-Fas APO1-3 agonist antibody were washed and marked directly with the anti-mouse secondary antibody coupled with Alexa555 fluorochrome. The cells incubated with Rituximab (anti-CD20) were washed in a cold PBS buffer then fixed with a PBS/4% PFA (paraformaldehyde) solution for 15 min. […] The cells were washed in PBS medium then the slide was dried and the cells were placed in a mounting medium, Fluoroprep (Biomerieux) and analysed by fluorescence confocal microscopy (LSM SP5, Leica, Germany) with an x63 zoom. The DAPI (200 ng/ml) allowed colouring the nuclei.

caspase-8 = test: Caspase-8 activation/cleavage; format: cell-based, human
CD95 [5] = test: CD95 expression; format: cell-based, human; details: 2-APB or BAPTA-AM regimens
Experimental: This technique allowed detecting the presence of a protein on the cell surface. All the steps took place at 4° C. so as to reduce membrane proteins endocytosis and loss of cell labelling.
Plasma membrane of the cells (10^6 cells per marking) was saturated for 5 minutes in 1 ml PBS containing 1% (w/v) BSA (bovine serum albumin) and 1% (v/v) foetal veal serum (FVS). This solution was used for washings and antibody dilutions.
The cells were incubated for 30 minutes with 50 μl primary antibody (anti-Fas DX2 clone at 10 μg/ml), washed twice with the PBS/BSA/FCS solution, then incubated with 50 μl of a secondary antibody coupled with phycoerythrin for 30 minutes. After 3 washings, the cells were re-suspended in 200 μl PBS/BSA/SVF and analysed immediately by flow cytometry (FACsCalibur, BD Biosciences). The fluorescence intensity was analysed with the Cellquest software.

[6] = tested on: Raji, BL2, Jurkat cell lines and activated PBL; test: Apoptosis % by loss of mitochondrial membrane potential; format: cell-based, human; details: Zoledronate 10 μM in vitro; BL2, Raji and Jurkat, respectively
Experimental: 2 to 4.10^4 cells were deposited in wells in a 96-well plate. The cells were incubated, in the presence of the different reactants for the times specified, at 37° C. in a final volume of 100 or 200 μl. The apoptotic cells were identified in the cellular populations by measuring mitochondrial de-polarisation. […] These potentiometric probes allowed monitoring the variations of the mitochondrial membrane potential. […] Following cell treatment with the different drugs, the former were placed in the presence of TMRM or DIOC6 at 10 nM concentration, for 20 minutes at 37° C. then the fluorescence of the cells was analysed by flow cytometry.

[7] = Mice calcemia after Zoledronate injection; format: in vivo; details: 4 mg/kg, one injection per week, 4 weeks, blood 3 days after last injection
Experimental: Blood samples were taken from mice 3 days after the last Zoledronate or vehicle injection and calcemia was assessed by COBAS INTEGRA Calcium® (Roche) micro-method.

Raji cells = test: Raji B lymphoma tumour growth in Rag2-/-γ-/- mice; format: in vivo; details: Raji s.c.; single agent; Rituximab 2 mg/kg, Zoledronate 4 mg/kg
Experimental: The implantation of the tumours was done subcutaneously in Rag2−/−γ−/− mice flank aged from 5 to 7 weeks. Following implantation of the tumours, the mice were divided in groups of 8 to 10 animals for each treatment. The size of the tumour was assessed every day by measuring its width (w) and its length (I). Its volume was calculated according to the formula: V=lw^2/2. At the end of the experiment, the animals were sacrified, the tumour weight was measured.
From 10^6 Raji cells were implanted subcutaneously in mice flank. The effects of Rituximab alone, of Zoledronate alone, are assessed on the growth of tumours. Rituximab (2 mg/kg) was delivered 3 times a week, Zoledronate was delivered 1 time a week.

NCCOB(c1ccccc1)c1ccccc1 [2-APB, 2-Aminoethoxydiphenyl borate]
DISC formation / FADD recruitment upon CD95 stimulation [1]: dramatically improved the DISC formation; also recorded: induction of DISC formation | CD95-mediated apoptotic signal in CD95-resistant cells ([2]; Jurkat-CD95Q257K, pre-incubation with non-cytotoxic doses): restored the CD95-mediated apoptotic signal at a level comparable to the parental cell line | potentiation of FasL response ([2]; high doses of 2-APB (44 μM), T or B lymphoma/leukemic cell lines): potentiated FasL response; also recorded: sensitizes drastically the Fas apoptotic signal | apoptotic signal by the agent alone ([2]; leukemic cell lines, long-term culture up to 24 hours, no CD95L): did not trigger the apoptotic signal | increase in intracellular calcium induced by Thapsigargin and by extracellular calcium 0 to 5 mM ([3]; 2-APB 44 μM): reduced the increase in the intracellular calcium concentration | concentration of intracellular calcium ([3]; high doses of 2-APB, T or B lymphoma cell lines): induced decreasing concentration of intracellular calcium | CD95-mediated peak of calcium ([3]; non-cytotoxic concentrations, CD95 stimulation): totally abrogated the CD95-mediated peak of calcium | basal [Ca2+]i ([3]; pre-incubation of cells): induced a faint decrease in the basal [Ca^2+]i | CD95-CAP formation (CD95 [4]): drives CD95-CAP | kinetic of caspase-8 cleavage upon CD95L (caspase-8; T and B-cell lines): accelerated the cleavage of the initiator caspase-8 | caspase-8 activation or mitochondrial depolarization by the agent alone (caspase-8; during 60 minutes treatment, no CD95L): no trace of caspase-8 activation or mitochondrial depolarization was detected | expression of CD95 (CD95 [5]): did not modify the expression of CD95

O=P(O)(O)C(O)(Cn1ccnc1)P(=O)(O)O [Zoledronate, zoledronate]
potentiation of apoptotic response to TRAIL, RTX and FasL [6]: does not potentiate the apoptotic response | intracellular calcium concentration ([3]; Zoledronate in vitro, all model cell lines tested): did not affect intracellular calcium concentration | calcemia vs vehicle [7]: significant (p<0.05) decrease in their calcemia | tumour mass vs vehicle (Raji cells): not significantly affected
